Source: the kinase profiling compilation of Christmann-Franck et al. (2016)

Assays:
ROCK2 (human) = ROCK2 (human) (UniProt O75116); experiment: SelectScreen, TR FRET; conditions: compound 5.0 µM
CSNK2A2 (human) = CSNK2A2 (human) (UniProt P19784); experiment: SelectScreen, TR FRET; conditions: compound 5.0 µM
EPHA5 (human) = EPHA5 (human) (UniProt P54756); experiment: SelectScreen, TR FRET; conditions: compound 5.0 µM
CHEK1 (human) = CHEK1 (human) (UniProt O14757); experiment: SelectScreen, TR FRET; conditions: compound 5.0 µM
CSF1R (human) = CSF1R (human) (UniProt P07333); experiment: radiometric filter-binding kinase assay
AXL (human) = AXL (human) (UniProt P30530); experiment: radiometric filter-binding kinase assay
TEK (human) = TEK (human) (UniProt Q02763); experiment: radiometric filter-binding kinase assay
Sequence of TEK (human) (Q02763 whole entry, looked up): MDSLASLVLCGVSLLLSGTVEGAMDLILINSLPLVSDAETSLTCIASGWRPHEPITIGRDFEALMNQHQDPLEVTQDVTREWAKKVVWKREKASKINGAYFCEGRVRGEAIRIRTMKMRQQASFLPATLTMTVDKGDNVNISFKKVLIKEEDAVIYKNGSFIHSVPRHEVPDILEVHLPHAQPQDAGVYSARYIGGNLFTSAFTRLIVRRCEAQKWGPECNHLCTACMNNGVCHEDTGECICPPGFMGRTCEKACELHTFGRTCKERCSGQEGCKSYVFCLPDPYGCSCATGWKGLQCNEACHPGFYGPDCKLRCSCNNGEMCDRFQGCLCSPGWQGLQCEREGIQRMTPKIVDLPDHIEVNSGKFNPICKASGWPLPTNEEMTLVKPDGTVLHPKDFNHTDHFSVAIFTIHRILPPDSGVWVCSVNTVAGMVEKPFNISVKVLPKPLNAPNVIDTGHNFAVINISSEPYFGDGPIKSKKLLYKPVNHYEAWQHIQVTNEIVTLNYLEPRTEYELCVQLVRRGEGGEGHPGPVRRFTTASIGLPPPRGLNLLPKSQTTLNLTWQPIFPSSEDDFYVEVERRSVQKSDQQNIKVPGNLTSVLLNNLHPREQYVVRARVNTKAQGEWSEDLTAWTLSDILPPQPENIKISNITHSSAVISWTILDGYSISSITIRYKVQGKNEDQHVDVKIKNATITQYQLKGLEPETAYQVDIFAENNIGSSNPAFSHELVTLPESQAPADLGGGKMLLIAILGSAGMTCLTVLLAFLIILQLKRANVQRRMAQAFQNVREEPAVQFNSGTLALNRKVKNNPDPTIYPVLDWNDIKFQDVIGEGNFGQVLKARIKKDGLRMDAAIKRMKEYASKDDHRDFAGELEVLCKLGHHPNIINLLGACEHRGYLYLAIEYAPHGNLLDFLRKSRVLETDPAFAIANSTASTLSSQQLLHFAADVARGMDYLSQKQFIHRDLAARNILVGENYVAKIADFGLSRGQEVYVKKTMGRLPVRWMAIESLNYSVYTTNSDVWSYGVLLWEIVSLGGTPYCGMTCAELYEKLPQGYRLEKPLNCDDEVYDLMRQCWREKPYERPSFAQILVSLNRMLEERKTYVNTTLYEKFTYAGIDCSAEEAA

KDR (human) = KDR (human) (UniProt P35968); experiment: radiometric filter-binding kinase assay
Sequence of KDR (human) (P35968 whole entry, looked up): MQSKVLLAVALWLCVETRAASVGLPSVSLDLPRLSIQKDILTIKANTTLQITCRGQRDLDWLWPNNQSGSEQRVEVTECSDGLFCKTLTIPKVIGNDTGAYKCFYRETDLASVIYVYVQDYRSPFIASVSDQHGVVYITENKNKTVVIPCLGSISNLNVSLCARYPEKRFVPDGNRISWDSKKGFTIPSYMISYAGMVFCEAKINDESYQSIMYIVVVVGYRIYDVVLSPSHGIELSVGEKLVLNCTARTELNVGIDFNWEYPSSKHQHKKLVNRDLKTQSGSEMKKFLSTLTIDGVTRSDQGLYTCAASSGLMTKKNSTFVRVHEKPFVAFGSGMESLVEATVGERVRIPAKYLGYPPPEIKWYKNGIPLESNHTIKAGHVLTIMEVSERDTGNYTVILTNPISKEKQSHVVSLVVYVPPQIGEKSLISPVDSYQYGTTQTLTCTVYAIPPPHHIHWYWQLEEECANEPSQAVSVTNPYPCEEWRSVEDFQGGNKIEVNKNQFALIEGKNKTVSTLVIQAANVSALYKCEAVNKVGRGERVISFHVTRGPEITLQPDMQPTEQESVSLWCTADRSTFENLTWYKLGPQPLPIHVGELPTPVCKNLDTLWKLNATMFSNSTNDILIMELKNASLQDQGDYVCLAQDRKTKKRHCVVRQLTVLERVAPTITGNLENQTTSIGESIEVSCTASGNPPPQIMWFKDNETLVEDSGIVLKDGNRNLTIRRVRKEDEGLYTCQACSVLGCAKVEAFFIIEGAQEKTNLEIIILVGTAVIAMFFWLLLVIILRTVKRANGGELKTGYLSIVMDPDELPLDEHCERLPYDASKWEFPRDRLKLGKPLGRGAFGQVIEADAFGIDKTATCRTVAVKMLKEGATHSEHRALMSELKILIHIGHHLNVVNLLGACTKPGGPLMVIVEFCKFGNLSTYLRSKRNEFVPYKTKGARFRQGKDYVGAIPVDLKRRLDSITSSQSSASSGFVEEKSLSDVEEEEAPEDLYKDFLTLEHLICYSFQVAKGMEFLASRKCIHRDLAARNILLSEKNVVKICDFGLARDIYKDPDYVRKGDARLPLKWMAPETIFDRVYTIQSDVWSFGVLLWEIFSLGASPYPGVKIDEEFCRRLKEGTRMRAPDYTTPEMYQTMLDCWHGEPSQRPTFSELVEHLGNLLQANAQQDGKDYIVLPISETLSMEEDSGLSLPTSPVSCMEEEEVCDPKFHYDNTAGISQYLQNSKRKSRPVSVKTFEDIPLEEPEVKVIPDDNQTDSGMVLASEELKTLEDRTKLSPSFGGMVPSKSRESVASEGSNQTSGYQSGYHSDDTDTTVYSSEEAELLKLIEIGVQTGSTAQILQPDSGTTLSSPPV

PDPK1 (human) = PDPK1 (human) (UniProt O15530); experiment: radiometric filter-binding kinase assay
PRKDC (human) = PRKDC (human) (UniProt P78527); experiment: radiometric filter-binding kinase assay
MET (human) = MET (human) (UniProt P08581); experiment: radiometric filter-binding kinase assay

Sequence of EPHA5 (human) (P54756 whole entry, looked up): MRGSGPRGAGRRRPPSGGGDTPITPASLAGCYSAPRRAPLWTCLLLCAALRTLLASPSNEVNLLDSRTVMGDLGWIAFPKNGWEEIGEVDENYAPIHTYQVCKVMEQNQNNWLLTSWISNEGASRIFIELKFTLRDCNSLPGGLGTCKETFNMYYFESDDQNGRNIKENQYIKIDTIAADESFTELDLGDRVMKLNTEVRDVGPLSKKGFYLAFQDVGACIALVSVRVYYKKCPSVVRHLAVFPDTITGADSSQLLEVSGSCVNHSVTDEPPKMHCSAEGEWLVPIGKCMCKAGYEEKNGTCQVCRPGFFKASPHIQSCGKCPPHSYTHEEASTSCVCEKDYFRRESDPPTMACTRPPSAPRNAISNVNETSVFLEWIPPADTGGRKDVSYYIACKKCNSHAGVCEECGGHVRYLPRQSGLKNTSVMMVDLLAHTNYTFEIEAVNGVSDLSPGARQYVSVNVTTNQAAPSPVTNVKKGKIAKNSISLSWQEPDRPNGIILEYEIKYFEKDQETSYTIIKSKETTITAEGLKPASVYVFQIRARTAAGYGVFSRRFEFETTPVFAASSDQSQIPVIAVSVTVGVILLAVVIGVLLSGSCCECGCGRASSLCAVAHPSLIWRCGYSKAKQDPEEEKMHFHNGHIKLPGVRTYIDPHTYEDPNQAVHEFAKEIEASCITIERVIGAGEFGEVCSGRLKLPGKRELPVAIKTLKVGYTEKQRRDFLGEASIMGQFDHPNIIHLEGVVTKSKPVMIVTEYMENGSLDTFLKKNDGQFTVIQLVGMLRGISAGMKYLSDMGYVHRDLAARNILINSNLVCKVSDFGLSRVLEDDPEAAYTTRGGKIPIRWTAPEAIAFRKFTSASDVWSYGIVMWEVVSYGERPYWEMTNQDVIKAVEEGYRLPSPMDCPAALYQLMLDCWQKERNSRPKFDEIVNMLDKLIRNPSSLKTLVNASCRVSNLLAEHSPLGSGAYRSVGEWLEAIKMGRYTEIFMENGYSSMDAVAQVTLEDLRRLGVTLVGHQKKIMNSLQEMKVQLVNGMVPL
Sequence of ROCK2 (human) (O75116 whole entry, looked up): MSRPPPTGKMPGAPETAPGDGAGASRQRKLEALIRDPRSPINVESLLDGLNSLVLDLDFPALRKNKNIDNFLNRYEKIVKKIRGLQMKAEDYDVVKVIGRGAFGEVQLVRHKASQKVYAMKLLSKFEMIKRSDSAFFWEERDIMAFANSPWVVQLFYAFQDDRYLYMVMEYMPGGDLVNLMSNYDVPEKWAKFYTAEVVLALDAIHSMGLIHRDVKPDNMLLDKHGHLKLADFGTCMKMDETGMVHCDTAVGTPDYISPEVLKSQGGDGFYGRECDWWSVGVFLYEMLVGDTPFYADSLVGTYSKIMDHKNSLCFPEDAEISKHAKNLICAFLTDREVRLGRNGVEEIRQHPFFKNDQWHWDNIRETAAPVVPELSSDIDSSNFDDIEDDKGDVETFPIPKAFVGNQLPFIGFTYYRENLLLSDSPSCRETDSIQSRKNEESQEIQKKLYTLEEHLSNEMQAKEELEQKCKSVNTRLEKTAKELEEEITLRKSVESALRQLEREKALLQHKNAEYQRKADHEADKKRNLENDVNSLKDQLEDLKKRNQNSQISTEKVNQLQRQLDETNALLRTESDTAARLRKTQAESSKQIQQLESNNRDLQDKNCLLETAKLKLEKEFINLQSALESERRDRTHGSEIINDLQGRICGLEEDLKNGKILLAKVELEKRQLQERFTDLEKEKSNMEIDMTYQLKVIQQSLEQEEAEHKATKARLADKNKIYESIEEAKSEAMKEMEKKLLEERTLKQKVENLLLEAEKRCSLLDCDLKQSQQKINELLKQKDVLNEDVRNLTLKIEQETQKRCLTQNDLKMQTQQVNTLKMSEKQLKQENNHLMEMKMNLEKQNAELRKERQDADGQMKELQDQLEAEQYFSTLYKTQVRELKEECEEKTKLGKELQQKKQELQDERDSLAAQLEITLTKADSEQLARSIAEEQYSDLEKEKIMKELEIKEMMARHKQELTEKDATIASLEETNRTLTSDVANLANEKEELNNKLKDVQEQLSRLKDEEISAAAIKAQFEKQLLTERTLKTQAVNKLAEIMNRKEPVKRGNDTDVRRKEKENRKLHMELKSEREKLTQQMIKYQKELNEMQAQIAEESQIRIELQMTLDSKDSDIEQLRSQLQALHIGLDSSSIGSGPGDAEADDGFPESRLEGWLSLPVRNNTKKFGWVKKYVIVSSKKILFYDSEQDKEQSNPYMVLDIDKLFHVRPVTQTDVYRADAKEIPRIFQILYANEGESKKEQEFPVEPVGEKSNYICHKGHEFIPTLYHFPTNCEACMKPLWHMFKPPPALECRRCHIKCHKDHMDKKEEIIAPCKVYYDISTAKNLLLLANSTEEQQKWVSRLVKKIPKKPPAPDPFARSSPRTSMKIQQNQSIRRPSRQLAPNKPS

inhibition (ROCK2 (human)): 3%
inhibition (CSNK2A2 (human)): -2%
inhibition (EPHA5 (human)): 0%
inhibition (CHEK1 (human)): 3%
IC50 (CSF1R (human)): 0.582 µM
IC50 (AXL (human)): > 10 µM
IC50 (TEK (human)): > 10 µM
IC50 (KDR (human)): > 10 µM
IC50 (PDPK1 (human)): > 10 µM
IC50 (PRKDC (human)): > 10 µM
IC50 (MET (human)): > 10 µM
SMILES: Nc1cc(C(F)(F)F)c(-c2cc(N3CCOCC3)nc(N3CCOCC3)n2)cn1
